Source: US6689383B1, “Chromium-histidine complexes as nutrient supplements” (The United States of America as represented by the …, priority 1999, dated 2004)
Like-named read-outs stand apart in the source and are kept apart here. Marks after values point to notes of the source that are not given here.

What was measured:
[1] = chromium picolinate: at intakes up to 1000 μg per day; cited from earlier work
[2] = Chromium absorption in humans based on urinary chromium excretion
Protocol: Experiments were carried out to investigate the efficacy of chromium-histidine complexes in the absorption process. Chromium was administered in the formulations listed in Table 1 at dosages of 200 μg chromium to three adult males and three females, and absorption during the first 24 hours was measured based on urinary chromium excretion.

Stability = assay type: physicochemical; settings: aqueous solutions
Water solubility = assay type: physicochemical
hemoglobin A1C = settings: type 2 diabetes, cited from earlier work
steroid-induced diabetes = settings: 600 μg of chromium per day for 2 weeks followed by daily maintenance dose of 200 μg; cited from earlier work
insulin sensitivity = settings: 1000 μg daily of supplemental chromium, obese subjects with family history of diabetes; cited from earlier work

## [Cl][Cr]([Cl])[Cl] [Chromium chloride]
[1]
  Absorption of chromium: approximately 0.4%
[2]; first 24 hours following intake of 200 μg of chromium, based on urinary chromium excretion, 3 adult males and 3 females
  μGRAMS ABSORBED (chromium absorbed): 0.44 ± 0.07^b μGRAMS

## N[C@@H](Cc1c[nH]cn1)C(=O)O.[Cr] [Chromium histidine]
Stability
  Stability: stable in aqueous solutions
[2]; 200 μg chromium, first 24 hours, urinary chromium excretion
  Absorption level relative to chromium picolinate: almost twice
Water solubility
  Water solubility: water-soluble

## Chromium picolinate
Hemoglobin A1C; 200 μg chromium per day for 4 months
  Hemoglobin A1C: 7.5±0.2%
Hemoglobin A1C; 1000 μg of chromium per day for 4 months
  Hemoglobin A1C: 6.6±0.1%
steroid-induced diabetes
  People whose steroid-induced diabetes improved to acceptable levels: 47 of 50
Insulin sensitivity
  Insulin sensitivity: improved
